This is an account of results in patent US20240216387A1, “COMPOSITION FOR PREVENTING OR TREATING MUSCULAR DISEASE, COMPRISING OXICAM-BASED COMPOUND” (ANIMUSCURE INC., priority 2021, published 2024).

The test system of series [1] is C2Cl2 cells. The series can be described thus: Myoblast differentiation by meloxicam concentration (MHC immunofluorescence and Western blot). The series is classed as cell-based, mice. As to the method: The C2Cl2 cells were cultured in a general cell culture medium and a differentiation medium, respectively. DMEM supplemented with 10% fetal bovine serum was used as a normal cell culture medium (i.e., a growth medium (GM)), and DMEM containing 2% horse serum was used as a differentiation medium (DM). […] After differentiation, the cells were observed under a microscope, and the cells were disrupted and subjected to Western blot analysis using myogenin and MHC antibodies, which are differentiation markers. The C2Cl2 cells were washed with 1×PBS, fixed with 4% paraformaldehyde at room temperature, and then allowed to react at room temperature after adding a permeabilization buffer. The reaction was performed with PBST (blocking buffer) containing 5% goat serum and PBS containing 0.05% Tween 20 to inhibit non-specific antibody binding. After adding a primary antibody against myosin heavy chain (MHC), the resulting mixture was allowed to react at room temperature. A secondary antibody diluted 1:5000 in a blocking buffer was added and allowed to react at room temperature, and after applying a mounting solution (40% glycerol in DW) and fixing, images were taken under a fluorescence microscope to analyze the results.

For series [2], the system named is human muscle stem cells. The series can be described thus: Human muscle stem cell differentiation (MHC immunostaining, myotube diameter). The conditions noted are these: muscle stem cells from subject, meloxicam 1 μM, 4 days. The series is classed as cell-based. As to the method: In addition, human muscle stem […] human skeletal muscle cells (Standard Donors), Cat NO: SK-1111) isolated from the rectus abdominis […] were purchased from MyoSite and used. Human muscle stem […] human skeletal muscle cells (Standard Donors), Cat NO: SK-1111) isolated from the rectus abdominis […] were purchased from MyoSite and used. Human muscle stem cells were seeded in a cell culture medium and cultured for 24 hours. […] The degree of differentiation into muscle fibers was measured through MHC immunostaining, which is a muscle fiber marker. Differentiation was analyzed by muscle fiber diameter.

The test system of series [3] is 24-month-old mice. The series is described as follows: Muscle mass, muscle type and motor performance in aging mice upon long-term administration. The series is classed as in vivo.
The subject of series [4] is relatively young mice. The series can be described thus: Grip strength and motor performance in relatively young mice (FIG. 15). The series is classed as in vivo. How it is done: On day 21 after inducing CTX-injury, a grip strength test for measuring the muscle strength of the meloxicam-administered group and the control group and an experiment for confirming motor performance were conducted. The grip strength test was performed by using a mouse grip strength tester manufactured by BIOSEB.

Series [5] concerns 4-month-old normal mice. The series can be described thus: Body weight, intake, grip strength, treadmill test and muscle mass in 4-month-old normal mice upon long-term administration. The series is classed as in vivo. Conditions: meloxicam for 2 months. How it is done: In the treadmill test, measurement was performed by using a treadmill device for mice manufactured by Columbus Instruments. Measurements started at a 10% slope and 8 m/min, which was increased 1 m/min every 2 minutes, and continued until the mouse became tired.

Take `Cc1cnc(NC(=O)C2=C(O)c3ccccc3S(=O)(=O)N2C)s1` [meloxicam]: the “MHC expression level (Western blot)” value in series [1] (by meloxicam concentration (1-10,000 nM), FIG. 3) is given as “increased”. For the same molecule, in series [1] (high concentration of meloxicam (1-10,000 nM tested), differentiation for 3 days, FIG. 2), the “MHC observed in myoblasts (fluorescence microscope)” value was “clearly observed”. Moreover, the myotube diameter result in series [2] (FIG. 4) was “increased”. For the same molecule, in series [2] (FIG. 5), the MHC expression entry is on record as “increased” and the myotube diameter entry was “increased”. Further, in series [3] (7-month-old mice), the “effect of increasing motor performance” value is recorded as “confirmed”. Besides, the “muscle mass in the hindlimb muscles and EDL muscle” value in series [3] (24-month-old mice, meloxicam for 4 months, FIG. 12) is recorded as “increased”. Moreover, the “motor performance increase (rotarod apparatus) compared to the control group” value in series [3] (aged mice, FIG. 14) is given as “more than 50%”. The motor performance increase entry in series [4] is on record as “up to 72.3%”. Further, the “muscle strength increase (grip strength test) compared to the control group” value in series [4] (day 21 after inducing CTX-injury as printed) is “about 21.9%”. Also, the “body weight change compared with the non-administration group” value in series [5] (FIG. 16A) is “no significant change”. Further, in series [5] (FIG. 16B), the change in intake result is listed as “no change”. In addition, in series [5] (FIG. 17A), the “muscle strength (grip strength test)” value is listed as “improved”. In series [5] (compared to the non-administration group, FIG. 17A), the “exercise duration (treadmill test)” value is “improved”.
